Laboratory results published in PMC12566520, “Targeted Modification of the Antimicrobial Peptide DGL13K Reveals a Naturally Optimized Sequence for Topical Applications” (Microorganisms, 2025).
Where two headings read alike, the source gives them in different places. Square brackets hold non-standard residues; d marks the D form. Ends that are not written are not given here. Peptide text beside a SMILES is read from it. d(aIle) = CC[C@H](C)[C@@H](N)C(=O)O; aIle = CC[C@@H](C)[C@H](N)C(=O)O

Experiments:
[1] = system: Pseudomonas aeruginosa Xen41; type: cell-based; details: for MIC P. aeruginosa: overnight 37 °C, OD630
Method: (§1) Pseudomonas aeruginosa Xen41 and Staphylococcus aureus Xen36 were obtained from Xenogen (Alameda, CA; now Revvity, Waltham, MA, USA) and Revvity, respectively, and stored at −80 °C in 10% glycerol. P. aeruginosa were cultured in Luria-Bertani broth while S. aureus were cultured in Todd-Hewitt Broth (Difco, Franklin Lakes, NJ, USA) overnight at 37 °C and shaking at 200 rpm. Cultures typically reached an optical density at 600 nm of 1.7 for P. aeruginosa and 1.3 for S. aureus.
(§2) MIC assays were performed as previously described. Briefly, overnight cultures of P. aeruginosa Xen41 were diluted to 10^5 CFU/mL in Mueller-Hinton Broth (Difco) while S. aureus Xen36 were similarly diluted in Todd-Hewitt Broth. Bacteria (100 µL) were added to 20 µL of 2-fold peptide dilutions in 10% PBS in 96-well polypropylene culture plates. The plates were incubated overnight at 37 °C with gentle rocking and then the optical density at 630 nm (OD630) was recorded in a BioTek Synergy HT plate reader (BioTek, Winooski, VT, USA; now Agilent, Santa Clara, CA, USA). Bioluminescence was recorded for quality control of the bioluminescent bacteria.

[2] = system: Staphylococcus aureus Xen36; type: cell-based; details: for MIC S. aureus: overnight 37 °C, OD630; for Antibacterial activity against S. aureus compared with unmodified peptide (in words): MIC assay
Method: as §1, §2

[3] = system: P. aeruginosa; parameters: method as in PMID 23917321; details: bacterial proteases, cultures of Gram-negative P. aeruginosa; cited from earlier work
[4] = system: human red blood cells; details: cited from earlier work
Text: The selective activity of many AMPs exploits the compositional differences between prokaryotic and eukaryotic membranes to avoid mammalian cell toxicity. The selectivity of AMPs is typically determined as the ratio between the hemolytic concentration and the MIC of the AMP (therapeutic index). One measure of the hemolytic activity is the peptide concentration leading to 50% lysis of red blood cells (HC50 = hemolytic concentration 50). This assay is routinely used for screening purposes and the lack of red cell toxicity is an important consideration for IV delivery of an AMP. ...

[5] = aqueous stock 10 mg/mL in dH2O or 0.01% acetic acid, 4 °C, more than 2 years; cited from earlier work
Text: Peptides are typically considered inherently unstable in aqueous solutions [57].

[6] = system: P. aeruginosa; assay: Heat stability (MIC assay after heating); type: physicochemical, Pseudomonas aeruginosa; details: 1 mg/mL in 10% PBS, 80 °C for 60 min vs room temperature; read-out MIC assay against P. aeruginosa; duplicates, N = 2, repeated with similar results
Method: Peptides were diluted to 1 mg/mL in sterile 10% PBS (1 part PBS, 9 parts dH2O) and heated for 60 min in a 0.5 mL microcentrifuge tube in a water bath set at 80 °C. Control samples were similarly incubated at room temperature. The samples were used for MIC assays, as described below.
as §2
Figure 1 Heat stability of GL13K peptides. LGL13K (circles) or DGL13K (boxes) were incubated for 1 h at room temperature (open symbols) or 80 °C (closed symbols) and then used for an MIC assay against P. aeruginosa. Duplicate samples were tested and plotted as mean ± range, N = 2. The experiment was repeated with similar results.

[7] = system: Enterococcus faecalis; details: cited from earlier work
Text: Proteolytic processing of AMPs has been cited as a concern for their development for clinical use. DGL13K was originally designed to overcome proteolytic processing of the L-enantiomer in cultures of P. aeruginosa.

[8] = cited from earlier work
[9] = Table 2, Xen41, 10^5 CFU/mL in Mueller-Hinton Broth, median MIC of 1–3 independent experiments
[10] = Table 2, Xen36, 10^5 CFU/mL in Todd-Hewitt Broth, median MIC of 1–3 independent experiments
[11] = Table 3, Xen41, Mueller-Hinton Broth, median MIC of 2–4 independent experiments, values outside tested range set at 1000 µg/mL
[12] = Table 3, Xen36, Todd-Hewitt Broth, median MIC of 2–4 independent experiments, values outside tested range set at 1000 µg/mL

CC[C@H](C)[C@@H](NC(=O)[C@@H](CCCCN)NC(=O)CN)C(=O)N[C@@H](C(=O)N[C@H](CCCCN)C(=O)N[C@H](CC(C)C)C(=O)N[C@H](CCCCN)C(=O)N[C@H](C)C(=O)N[C@H](CO)C(=O)N[C@H](CC(C)C)C(=O)N[C@H](CCCCN)C(=O)N[C@H](CC(C)C)C(=O)N[C@H](CC(C)C)C(N)=O)[C@@H](C)CC [D-allo-Ile GL13K] (H-G[dK][d(aIle)][d(aIle)][dK][dL][dK][dA][dS][dL][dK][dL][dL]-NH2; N-terminus assumed)
MIC P. aeruginosa [1, 9]: 5.2 µg/mL
MIC S. aureus [2, 10]: 2.6 µg/mL

CC[C@@H](C)[C@@H](NC(=O)[C@@H](Cc1c[nH]c2ccccc12)NC(=O)[C@@H](CCCCN)NC(=O)[C@@H](CCCCN)NC(=O)CN)C(=O)N[C@H](CCCCN)C(=O)N[C@H](CCCCN)C(=O)N[C@H](C)C(=O)N[C@H](CO)C(=O)N[C@H](CCCCN)C(=O)N[C@H](Cc1c[nH]c2ccccc12)C(=O)N[C@H](CC(C)C)C(=O)O [DGL12W] (H-G[dK][dK][dW][dI][dK][dK][dA][dS][dK][dW][dL]-OH; N-terminus assumed)
MIC P. aeruginosa [1, 11]: 13 µg/mL
Antibacterial activity against S. aureus compared with unmodified peptide (in words) [2]: lost its activity

CC[C@@H](C)[C@@H](NC(=O)[C@@H](CCCCN)NC(=O)CN)C(=O)N[C@@H](C(=O)N[C@H](CCCCN)C(=O)N[C@H](CC(C)C)C(=O)N[C@H](CCCCN)C(=O)N[C@H](C)C(=O)N[C@H](CO)C(=O)N[C@H](CC(C)C)C(=O)N[C@H](CCCCN)C(=O)N[C@H](CC(C)C)C(=O)N[C@H](CC(C)C)C(N)=O)[C@H](C)CC [DGL13K] (H-G[dK][dI][dI][dK][dL][dK][dA][dS][dL][dK][dL][dL]-NH2; N-terminus assumed)
Proteolytic degradation in cultures of P. aeruginosa [3]: not degraded
HC50 (peptide concentration leading to 50% lysis of red blood cells) [4]: 500 to 1000 µg/mL
Loss of antibacterial activity of aqueous solution after storage [5]: did not lose antibacterial activity
MIC P. aeruginosa [1, 9]: 7.8 µg/mL
MIC P. aeruginosa [1, 11]: 5.2 µg/mL
MIC S. aureus [2, 10]: 2.6 µg/mL
MIC S. aureus [2, 12]: 1.3 µg/mL
Loss of activity after heating of solution [6]: no loss of activity
Proteolytic degradation in cultures of Enterococcus faecalis [7]: resists proteolytic degradation
stability of aqueous solution (no loss of antibacterial activity) [8]: > 2 years

CC[C@@H](C)[C@@H](NC(=O)[C@@H](CCCNC(=N)N)NC(=O)CN)C(=O)N[C@@H](C(=O)N[C@H](CCCNC(=N)N)C(=O)N[C@H](CC(C)C)C(=O)N[C@H](CCCNC(=N)N)C(=O)N[C@H](C)C(=O)N[C@H](CO)C(=O)N[C@H](CC(C)C)C(=O)N[C@H](CCCNC(=N)N)C(=O)N[C@H](CC(C)C)C(=O)N[C@H](CC(C)C)C(N)=O)[C@H](C)CC [DGL13R] (H-G[dR][dI][dI][dR][dL][dR][dA][dS][dL][dR][dL][dL]-NH2; N-terminus assumed)
Antibacterial activity against S. aureus compared with unmodified peptide (in words) [2]: not different from the parent peptide
MIC S. aureus [2, 12]: 2.6 µg/mL

GKIIKLKASLKLL-NH2 [LGL13K]
Proteolytic degradation in cultures of P. aeruginosa [3]: susceptible to bacterial proteases
HC50 (peptide concentration leading to 50% lysis of red blood cells) [4]: 500 to 1000 µg/mL
MIC P. aeruginosa [1, 9]: 10.4 µg/mL
MIC S. aureus [2, 10]: 83.3 µg/mL

GKIIKLKASLKLL-NH2 [PEG-LGL13K, N-terminally PEGylated version of LGL13K]
Fold increase in MIC for P. aeruginosa versus unmodified parent peptide ([1]; compared with DGL13K (or LGL13K for PEG-LGL13K), Figure 4 / Table 3): three-fold
Fold increase in MIC for S. aureus versus unmodified parent peptide ([2]; compared with DGL13K (or LGL13K for PEG-LGL13K), Figure 4): two

CC[C@@H](C)[C@H](NC(=O)[C@H](CCCCN)NC(=O)CN)C(=O)N[C@H](C(=O)N[C@@H](CCCCN)C(=O)N[C@@H](CC(C)C)C(=O)N[C@@H](CCCCN)C(=O)N[C@@H](C)C(=O)N[C@@H](CO)C(=O)N[C@@H](CC(C)C)C(=O)N[C@@H](CCCCN)C(=O)N[C@@H](CC(C)C)C(=O)N[C@@H](CC(C)C)C(N)=O)[C@H](C)CC [L-allo-Ile GL13K] (H-GK[aIle][aIle]KLKASLKLL-NH2; N-terminus assumed)
MIC P. aeruginosa [1, 9]: 10.4 µg/mL
MIC S. aureus [2, 10]: 83.3 µg/mL
